{
  "source": "patent US9303026B2",
  "about": "“Antiviral agents” (Biota Scientific Management Pty Ltd, priority 2000, dated 2016)",
  "assay": "Cytotoxicity in uninfected treated cultures (CC50)",
  "assay_type": "cell-based",
  "conditions": "human, uninfected MRC-5 human embryo lung cells; Table 7; concentration yielding 50% cytotoxicity, uninfected MRC-5 cells",
  "data": [
    {"molecule": "CSc1nc2ccc(OCCC3CCN(c4ccc(C)nn4)CC3)cc2o1", "note": "[Compound 4, 6-{2-[1-(6-Methyl-3-pyridazinyl)-4-piperidinyl]ethoxy}-2-methylthiobenzoxazole]", "values": [
      {"measurement": "CC50", "result": "> 1", "unit": "µg/mL"}
    ]}
  ]
}
